Laboratory results as given in US8198315B2, “Therapeutic substituted cyclic lactams” (Allergan, Inc., priority 2007, dated 2012).

Assays:
EP2 [1] = target: T1, EP2 (Homo sapiens, UniProt P43116); assay: EP2 flipr assay; assay type: cell-based
From the text: (§1) U.S. patent application Ser. No. 11/553,143, filed on Oct. 26, 2006, incorporated by reference herein, describes the methods used to obtain the in vitro data in the table below.

hIP = hIP (Homo sapiens, UniProt P43119); assay: Other receptors functional assay, hIP; assay type: cell-based
hIP, sequence (P43119 whole entry): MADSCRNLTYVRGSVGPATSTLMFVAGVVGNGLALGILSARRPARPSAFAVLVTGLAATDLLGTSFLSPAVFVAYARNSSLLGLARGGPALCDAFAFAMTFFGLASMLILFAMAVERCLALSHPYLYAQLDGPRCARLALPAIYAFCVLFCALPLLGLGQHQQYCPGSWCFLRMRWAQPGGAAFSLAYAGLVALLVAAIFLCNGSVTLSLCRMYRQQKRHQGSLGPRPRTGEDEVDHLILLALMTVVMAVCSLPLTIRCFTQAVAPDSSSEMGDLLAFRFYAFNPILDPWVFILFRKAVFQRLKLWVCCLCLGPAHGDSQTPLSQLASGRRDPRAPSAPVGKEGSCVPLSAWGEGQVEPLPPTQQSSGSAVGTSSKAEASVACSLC
From the text: as §1

hTP = target: T2, hTP (Homo sapiens, UniProt P21731); assay: Other receptors functional assay, hTP; assay type: cell-based
T2 sequence (P21731 1-343): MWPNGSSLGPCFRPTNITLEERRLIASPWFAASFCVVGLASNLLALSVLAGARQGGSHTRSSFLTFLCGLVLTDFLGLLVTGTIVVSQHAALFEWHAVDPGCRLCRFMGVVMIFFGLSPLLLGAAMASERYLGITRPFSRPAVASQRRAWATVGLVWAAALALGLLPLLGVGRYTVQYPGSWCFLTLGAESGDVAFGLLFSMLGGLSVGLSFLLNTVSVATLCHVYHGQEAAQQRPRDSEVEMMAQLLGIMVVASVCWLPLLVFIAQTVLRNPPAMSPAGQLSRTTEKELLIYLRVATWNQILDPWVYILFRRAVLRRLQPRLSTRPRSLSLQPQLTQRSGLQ
From the text: as §1

hDP = target: T3, hDP (Homo sapiens, UniProt Q13258); assay: Other receptors functional assay, hDP; assay type: cell-based
T3 sequence (Q13258 1-359): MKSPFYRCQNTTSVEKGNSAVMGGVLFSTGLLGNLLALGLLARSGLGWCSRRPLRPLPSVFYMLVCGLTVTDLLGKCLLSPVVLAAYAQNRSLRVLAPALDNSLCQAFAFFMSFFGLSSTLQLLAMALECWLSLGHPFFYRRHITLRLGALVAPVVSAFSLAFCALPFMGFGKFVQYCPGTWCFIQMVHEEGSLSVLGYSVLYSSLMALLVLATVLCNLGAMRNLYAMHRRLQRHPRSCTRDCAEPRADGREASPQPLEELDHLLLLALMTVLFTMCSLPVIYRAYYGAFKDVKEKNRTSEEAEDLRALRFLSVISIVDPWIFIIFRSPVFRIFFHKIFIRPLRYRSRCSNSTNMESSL
From the text: as §1

EP2 [2] = target: T1, EP2; assay: EP2 cAMP assay; assay type: cell-based
From the text: as §1

EP2 [3] = target: T1, EP2; assay: EP2 binding (Ki)
From the text: as §1

hEP3A = target: T4, hEP3A (Homo sapiens, UniProt P43115); assay: Other receptors functional assay, hEP3A; assay type: cell-based
T4 sequence (P43115 1-390): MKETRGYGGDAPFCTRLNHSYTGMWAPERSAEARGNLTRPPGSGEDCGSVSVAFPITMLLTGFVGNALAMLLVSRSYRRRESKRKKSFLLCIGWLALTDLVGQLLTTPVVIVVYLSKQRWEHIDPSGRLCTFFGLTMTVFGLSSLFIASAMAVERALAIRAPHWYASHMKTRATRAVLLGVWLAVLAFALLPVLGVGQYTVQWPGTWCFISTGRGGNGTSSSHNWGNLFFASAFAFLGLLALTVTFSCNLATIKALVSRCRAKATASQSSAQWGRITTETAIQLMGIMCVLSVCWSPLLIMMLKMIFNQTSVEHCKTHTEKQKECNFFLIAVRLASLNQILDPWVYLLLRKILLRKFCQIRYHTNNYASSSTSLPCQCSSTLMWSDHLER
From the text: as §1

EP4 [4] = target: T5, EP4 (Homo sapiens, UniProt P35408); assay: EP4 flipr assay; assay type: cell-based; details: read-out: EP4 data flip EC50
T5 sequence (P35408 whole entry): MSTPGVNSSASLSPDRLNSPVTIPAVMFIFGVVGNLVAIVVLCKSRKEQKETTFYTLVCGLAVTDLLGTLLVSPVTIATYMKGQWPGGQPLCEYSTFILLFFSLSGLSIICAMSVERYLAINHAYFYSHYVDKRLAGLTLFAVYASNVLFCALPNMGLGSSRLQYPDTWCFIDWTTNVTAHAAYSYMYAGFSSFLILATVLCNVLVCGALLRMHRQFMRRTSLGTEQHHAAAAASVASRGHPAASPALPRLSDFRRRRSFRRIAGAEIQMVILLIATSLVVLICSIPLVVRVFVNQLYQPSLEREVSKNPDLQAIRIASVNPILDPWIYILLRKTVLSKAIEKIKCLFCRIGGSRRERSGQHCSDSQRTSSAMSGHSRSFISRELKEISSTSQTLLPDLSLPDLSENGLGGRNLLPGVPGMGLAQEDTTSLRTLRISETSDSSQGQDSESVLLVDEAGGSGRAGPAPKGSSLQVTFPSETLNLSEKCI
From the text: as §1

EP4 [5] = target: T5, EP4; assay: EP4 binding (Ki)
From the text: as §1

normotensive dogs [6] = assay: Intraocular pressure in normotensive dogs; assay type: in vivo, dog; details: once daily for 5 days, at 78 h
Protocol: (§2) U.S. Pat. No. 7,091,231 describes the methods used to carry out the tests reported below.
(§3) 5-[(R)-1-((S)-3-Hydroxyoctyl)-5-oxopyrrolidin-2-ylmethoxymethyl]-thiophene-2-carboxylic isopropyl ester was tested in normotensive dogs at 2 concentrations, dosing once daily for 5 days. At 0.1%, the maximum intraocular pressure (TOP) decrease from baseline was 8 mmHg (47%) at 78 h; the maximum ocular surface hyperemia (OSH) score was 2.25 at 50 h. At 0.01%, the maximum TOP decrease from baseline was 6.1 mmHg (35%) at 78 h; the maximum OSH score was 1.7 at 30 h. This compound was also tested in laser-induced hypertensive monkeys, using one single day dose. At 0.1%, the maximum TOP decrease from baseline was 17 mmHg (48%) at 6 h.

normotensive dogs [7] = assay: Ocular surface hyperemia in normotensive dogs; assay type: in vivo, dog; details: once daily for 5 days
Protocol: as §2, §3

[8] = tested on: laser-induced hypertensive monkeys; assay: Intraocular pressure in laser-induced hypertensive monkeys; assay type: in vivo, monkey; details: 0.1%, one single day dose, at 6 h
Protocol: as §2, §3

T1 sequence (P43116 whole entry): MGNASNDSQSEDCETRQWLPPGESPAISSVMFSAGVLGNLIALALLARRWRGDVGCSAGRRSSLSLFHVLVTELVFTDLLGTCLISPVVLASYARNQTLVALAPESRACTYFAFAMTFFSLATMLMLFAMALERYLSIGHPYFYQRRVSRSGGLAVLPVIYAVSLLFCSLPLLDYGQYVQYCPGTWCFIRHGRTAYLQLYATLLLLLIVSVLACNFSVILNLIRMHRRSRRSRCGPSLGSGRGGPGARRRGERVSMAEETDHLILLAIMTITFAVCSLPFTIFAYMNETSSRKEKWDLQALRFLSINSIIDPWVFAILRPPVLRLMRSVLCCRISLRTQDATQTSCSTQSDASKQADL

Row | Compound | EC50 (EP2 [1]) [nM] | EC50 (hIP) [nM] | EC50 (hTP) [nM] | EC50 (hDP) [nM] | EC50 (EP2 [2]) [nM] | Ki (EP2 [3]) [nM] | EC50 (hEP3A) [nM] | EC50 (EP4 [4]) [nM] | Ki (EP4 [5]) [nM] | maximum intraocular pressure decrease from baseline (normotensive dogs [6]; 0.01%) [mmHg] | maximum intraocular pressure decrease from baseline (percent) (normotensive dogs [6]; 0.01%) [%] | maximum intraocular pressure decrease from baseline (normotensive dogs [6]; 0.1%) [mmHg] | maximum intraocular pressure decrease from baseline (percent) (normotensive dogs [6]; 0.1%) [%] | maximum ocular surface hyperemia (OSH) score (normotensive dogs [7]; 0.01%, at 30 h) | maximum ocular surface hyperemia (OSH) score (normotensive dogs [7]; 0.1%, at 50 h) | maximum intraocular pressure decrease from baseline [8] [mmHg] | maximum intraocular pressure decrease from baseline (percent) [8] [%]
1 | CCCC1(C(O)CCCN2C(=O)CC[C@@H]2COCc2ccc(C(=O)O)s2)CCC1 (mixture of isomers) [Example 4, 5-{(R)-1-[4-Hydroxy-4-(1-propylcyclobutyl)-butyl]-5-oxopyrrolidin-2-ylmethoxymethyl}-thiophene-2-carboxylic acid] | > 10000 | > 10000 | > 10000 | 213 | 20 | 1200 | > 10000 |  |  |  |  |  |  |  |  |  | 
2 | CCCCC[C@H](O)CCN1C(=O)CC[C@@H]1COCc1ccc(C(=O)O)s1 [Example 1, 5-[(R)-1-((S)-3-Hydroxyoctyl)-5-oxopyrrolidin-2-ylmethoxymethyl]-thiophene-2-carboxylic acid] | 1570 |  | 4890 | 6.8 | 19 | 2880 | 2220 | 7850 | 8720 |  |  |  |  |  |  |  | 
3 | CCCCC[C@H](O)CCN1C(=O)CC[C@@H]1COCc1ccc(C(=O)NS(C)(=O)=O)s1 [Example 2, N-{5-[(R)-1-((S)-3-Hydroxy-octyl)-5-oxopyrrolidin-2-ylmethoxymethyl]-thiophene-2-carbonyl}-methanesulfonamide] |  | > 10000 | > 10000 | 194 |  |  | 2030 |  |  |  |  |  |  |  |  |  | 
4 | CCCCC[C@H](O)CCN1C(=O)CC[C@@H]1COCc1ccc(C(=O)NCC)s1 [Example 3, 5-[(R)-1-((S)-3-Hydroxy-octyl)-5-oxopyrrolidin-2-ylmethoxymethyl]-thiophene-2-carboxylic acid ethylamide] |  | > 10000 | > 10000 | > 10000 |  |  |  |  |  |  |  |  |  |  |  |  | 
5 | CCCCC[C@H](O)CCN1C(=O)CC[C@@H]1COCc1ccc(C(=O)OC(C)C)s1 [Example 5, 5-[(R)-1-((S)-3-Hydroxyoctyl)-5-oxopyrrolidin-2-ylmethoxymethyl]-thiophene-2-carboxylic isopropyl ester] |  |  |  |  |  |  |  |  |  | 6.1 | 35 | 8 | 47 | 1.7 | 2.25 | 17 | 48
